How the values were obtained:
[1] = molecular target: T1, CTP synthetase (CtpS E277R) (Escherichia coli, UniProt P0A7E5, E277R); test: CTP inhibition of CTP synthesis by purified enzyme (absorbance at […] nm), […] enzyme; assay type: biochemical
T1 construct: gene pyrG; full-length, 6XHis tag not cleaved

[2] = molecular target: T2, CTP synthetase (CtpS) (Escherichia coli, UniProt P0A7E5); test: CTP production by purified enzyme initiated by glutamine; assay type: biochemical
T2 construct: gene pyrG; full-length
T2 sequence (P0A7E5 2-545): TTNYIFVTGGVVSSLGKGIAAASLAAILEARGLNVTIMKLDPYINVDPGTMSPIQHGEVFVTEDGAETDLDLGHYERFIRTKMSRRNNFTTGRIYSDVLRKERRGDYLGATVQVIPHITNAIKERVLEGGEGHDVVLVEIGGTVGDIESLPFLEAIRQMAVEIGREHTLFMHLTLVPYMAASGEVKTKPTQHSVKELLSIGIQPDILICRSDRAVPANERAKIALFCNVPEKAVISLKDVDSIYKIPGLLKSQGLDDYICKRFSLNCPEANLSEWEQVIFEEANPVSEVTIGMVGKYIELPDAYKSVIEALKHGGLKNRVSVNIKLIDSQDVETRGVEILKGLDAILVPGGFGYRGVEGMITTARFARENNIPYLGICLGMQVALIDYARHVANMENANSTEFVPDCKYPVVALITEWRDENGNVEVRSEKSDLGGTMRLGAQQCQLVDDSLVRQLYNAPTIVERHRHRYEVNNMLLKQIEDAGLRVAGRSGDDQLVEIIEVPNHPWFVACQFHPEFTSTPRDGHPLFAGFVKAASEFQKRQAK

[3] = molecular target: T2, CTP synthetase (CtpS); test: purified enzyme turnover to CTP; UTP with ATP depolymerizes and reactivates CtpS (light scattering and activity); assay type: biochemical
[4] = molecular target: T2, CTP synthetase (CtpS); test: purified enzyme turnover; ATP with UTP depolymerizes and reactivates CtpS (light scattering and activity); assay type: biochemical
[5] = molecular target: T2, CTP synthetase (CtpS); test: CTP production (transmittance at […] nm) and light scattering of purified CtpS with DON; assay type: biochemical
[6] = molecular target: T2, CTP synthetase (CtpS); test: cryo-EM difference density in the CtpS filament ([…] Å); assay type: binding

T1 sequence (P0A7E5 2-545 E277R): as the sequence (P0A7E5 2-545) above, with E276R counted along it

Nc1ccn([C@@H]2O[C@H](COP(=O)(O)OP(=O)(O)OP(=O)(O)O)[C@@H](O)[C@H]2O)c(=O)n1 [CTP]
IC50 [1]: 833 µM

NC(=O)CC[C@H](N)C(=O)O [glutamine]
CTP production by purified enzyme initiated by glutamine [2]: CTP production was then initiated by the addition of glutamine to form a complete activity buffer.

O=c1ccn([C@@H]2O[C@H](CO[P@@](=O)(O)O[P@@](=O)(O)OP(=O)(O)O)[C@@H](O)[C@H]2O)c(=O)[nH]1 [UTP]
purified enzyme turnover to CTP; UTP with ATP depolymerizes and reactivates CtpS [3]: Upon addition of these substrate nucleotides, we observed a sharp decrease in light scattering

Nc1ncnc2c1ncn2[C@@H]1O[C@H](COP(=O)(O)OP(=O)(O)OP(=O)(O)O)[C@@H](O)[C@H]1O [ATP]
purified enzyme turnover; ATP with UTP depolymerizes and reactivates CtpS (light) [4]: Addition of ATP and UTP depolymerized the sample.

[N-]=[N+]=CC(=O)CC[C@H](N)C(=O)O [6-Diazo-5-oxo-L-norleucine]
CTP production (transmittance at 291 nm) and light scattering of purified CtpS w [5]: When added to activity buffer, DON abolishes both CTP production and CtpS polymerization

Nc1ncnc2c1ncn2[C@@H]1O[C@H](COP(=O)(O)OP(=O)(O)O)[C@@H](O)[C@H]1O [ADP]
cryo-EM difference density in the CtpS filament (8.4 Å) [6]: Similarly strong density is found in the difference map in the positions of bound ADP.

Source: article PMC4126345, “Large-scale filament formation inhibits the activity of CTP synthetase” (eLife, 2014)
